Data set [1] can be described thus: Barrier effect against metals.
A short description of data set [2]: Direct peptide reaction assay (DPRA) with urushiols, Ellman's reagent, 24 h. The conditions noted are these: FIG. 9; urushiol structures I-V, 24 h reaction, n=3. The procedure:
The reaction courses shown in FIGS. 8 and 9 were determined colorimetrically through the reaction of the peptide with Ellmann's reagent in a photometer. In this reaction, DTNB ((5,5′-dithiobis-2-nitrobenzoic acid, Ellmann's reagent) is cleaved and attached to the SH residue of the amino acid cysteine of the peptides of the invention (Ac-RFAACAA, RFAACAA).
The SH radical is at the same time the reactive binding site of the peptide with the allergens. The color reaction with DTNB (color change from colorless to yellow) competes with the allergen reaction. This means that the better the allergen reacts with the peptide, the less peptide remains available for the reaction with the detection reagent, i.e. the less the resulting yellow coloration.
The control is the peptide in the buffer system without allergen, i.e. instead of allergen only its solvent (ethanol) is added.
Urushiols of the structure below were used.
The investigated urushiols differ in the saturation in the side chain R.
Urushiols where R═C15 singly (C15:1), doubly (C15:2) or triply (C15:3) unsaturated were investigated.

Data set [3] has as its system Phenion FTS full skin models. The data set is described as follows: Cytokine release (IL8, IL6) in supernatants of Phenion FTS full skin models, Bio-Plex multiplex immunoassay. Type of data set: cell-based, human. The conditions noted are these: FIGS. 2 to 4 left bar; 0.5 mM peptide without allergen. Here is the method:
(§1) The investigations were carried out using Phenion FTS full skin models (Phenion, Henkel). These were maintained for 3 days at 37° C. and 7% CO2 in deep-well plates having a […] pore size in the cell culture inserts. The skin models were maintained in 1.5 ml of air-liquid interface medium without phenol red. The medium was changed daily. The test substances were dissolved in ethanol and incubated at room temperature for 24 h. After culturing for 24 h, 25 μl of the substance solution was dripped onto a sterile filter paper that had previously been laid on the skin model. The barrier peptide (0.5 mM AcRFAACAA) had previously been applied to the model as a solution in 100 mM phosphate buffer (pH 7.5). Alternatively, the barrier peptide was applied in a formulation having a content of 0.25% by weight.
(§2) After culturing for a further 24 h, the models were harvested and one half embedded in OCT mounting medium (VWR Q-Path Chemicals), the other half snap-frozen in liquid nitrogen. The supernatant of each model was collected and stored at −20° C.
The supernatants were then analyzed (FIGS. 2, 3 and 4).
The supernatants of the Phenion FTS models were analyzed using the Bio-Plex Pro Human Cytokine Screening Panel (Bio-Rad) according to the manufacturer's protocol. […] The cytokine concentrations are calculated on the basis of the standard curves from the Bioplex system. […]

In data set [4] the test system is Phenion skin models. The data set can be described thus: H&E staining of cryosections of Phenion skin models. The class given is cell-based. The following applies: FIG. 5 B; 0.5 mM peptide, no allergen. The procedure: as §1, §2
In further investigations, frozen sections were thawed and incubated for 10 min in 3.7% paraformaldehyde at RT. After three PBS wash steps and one minute in distilled water, they are stained for 3 min in hematoxylin solution. […]

Where no end group is shown, it is not given here.

As for “His His His His His His (HHHHHH; printed: His His His His His His)”, the “barrier effect against metals and nickel in particular” value in data set [1] is given as “achieved a barrier effect”.

On to RFAACAA [Arg Phe Ala Ala Cys Ala Ala], for which the “reactivity and thus protective activity against urushiols” value in data set [2] is “very high reactivity”.

Take “Ac-RFAACAA [Ac-RFAACAA, acetylarginine-phenylalanine-alanine-alanine-cysteine-alanine-alanine]”: in data set [3], the “skin model IL8/IL6 release with peptide on its own” value is given as “unchanged”. The “skin model morphology (H&E) with peptide on its own” value in data set [4] is listed as “unchanged”.

The record behind these values is US20230103675A1, “ALLERGEN PROTECTION FOR THE SKIN” (BEIERSDORF AG, priority 2020, published 2023).
